According to PubChem BioAssay AID248 (DTP/NCI, 2004):
Toxic doses and inconclusive results are not listed. Cut-off read from the data, not from the text of the source: active = T/C of 150% or more; inactive = T/C below 125%.

System: L1210 leukemia ip in BDF1 mice, survival T/C
Assay: NCI In Vivo Anticancer Drug Screen. Data for tumor model L1210 Leukemia (intraperitoneal) in B6D2F1 (BDF1) mice
Conditions: endpoint: mean survival time, higher = longer survival
Outline: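 Read-out is survival time, reported as the treated-group measurement over the vehicle-control measurement.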

[1] = dose: 100.0 mg/kg/injection, schedule: Q01DX001 (ip), vehicle: Klucel (hydroxypropylcellulose) (HPC)
[2] = dose: 200.0 mg/kg/injection, schedule: Q01DX001 (ip), vehicle: Klucel (hydroxypropylcellulose) (HPC)
[3] = dose: 200.0 mg/kg/injection, schedule: Q01DX009 (ip), vehicle: Klucel (hydroxypropylcellulose) (HPC)
[4] = dose: 400.0 mg/kg/injection, schedule: Q01DX001 (ip), vehicle: Klucel (hydroxypropylcellulose) (HPC)
[5] = dose: 100.0 mg/kg/injection, schedule: Q01DX009 (ip), vehicle: Klucel (hydroxypropylcellulose) (HPC)
[6] = dose: 400.0 mg/kg/injection, schedule: Q01DX009 (ip), vehicle: Klucel (hydroxypropylcellulose) (HPC)
[7] = dose: 100.0 mg/kg/injection, schedule: Q04DX003 (ip), vehicle: saline with Tween-80
[8] = dose: 200.0 mg/kg/injection, schedule: Q04DX003 (ip), vehicle: saline with Tween-80
[9] = dose: 400.0 mg/kg/injection, schedule: Q04DX003 (ip), vehicle: saline with Tween-80

Measured: T/C

COc1ccccc1/C=N\N=C(N/N=C/c1ccccc1OC)N/N=C/c1ccccc1OC
inactive: dose: 15.0 mg/kg/injection, schedule: Q01DX Z (ip), vehicle: methylcellulose (MC) 96 % of control | dose: 30.0 mg/kg/injection, schedule: Q01DX Z (ip), vehicle: methylcellulose (MC) 108 % of control | dose: 60.0 mg/kg/injection, schedule: Q01DX Z (ip), vehicle: methylcellulose (MC) 101 % of control | dose: 60.0 mg/kg/injection, schedule: Q01DX Z (oral), vehicle: methylcellulose (MC) 102 % of control | dose: 120.0 mg/kg/injection, schedule: Q01DX Z (ip), vehicle: methylcellulose (MC) 102 % of control | dose: 120.0 mg/kg/injection, schedule: Q01DX Z (oral), vehicle: methylcellulose (MC) 100 % of control | dose: 240.0 mg/kg/injection, schedule: Q01DX Z (ip), vehicle: methylcellulose (MC) 97 % of control | dose: 325.0 mg/kg/injection, schedule: Q01DX Z (oral), vehicle: methylcellulose (MC) 86 % of control | dose: 360.0 mg/kg/injection, schedule: Q01DX Z (ip), vehicle: methylcellulose (MC) 100 % of control | dose: 480.0 mg/kg/injection, schedule: Q01DX Z (ip), vehicle: methylcellulose (MC) 110 % of control | dose: 480.0 mg/kg/injection, schedule: Q01DX Z (oral), vehicle: methylcellulose (MC) 104 % of control | dose: 675.0 mg/kg/injection, schedule: Q01DX Z (oral), vehicle: methylcellulose (MC) 108 % of control

Cc1ccc(Nc2n[nH]c(=S)s2)c(C)c1
inactive: dose: 100.0 mg/kg/injection, schedule: Q04DX002 (ip), vehicle: gum acacia 96 % of control | dose: 200.0 mg/kg/injection, schedule: Q04DX002 (ip), vehicle: gum acacia 96 % of control | dose: 400.0 mg/kg/injection, schedule: Q04DX002 (ip), vehicle: gum acacia 111 % of control

CCCCOC(=O)c1ccc(OC(=O)Nc2cccc(Cl)c2)cc1
inactive: [1] 94 % of control | [2] 92 % of control | [3] 102 % of control | [4] 90 % of control

Cc1cc(OCCOC(=O)Nc2ccc(F)cc2)ccc1Cl
inactive: [5] 106 % of control | [3] 101 % of control | [6] 101 % of control

O=[N+]([O-])c1cc(S(=O)(=O)OCC2CO2)ccc1Cl (centres undefined)
inactive: dose: 6.25 mg/kg/injection, schedule: Q04DX003 (ip), vehicle: Klucel (hydroxypropylcellulose) (HPC) 98 % of control | dose: 12.5 mg/kg/injection, schedule: Q01DX009 (ip), vehicle: Klucel (hydroxypropylcellulose) (HPC) 96 % of control | dose: 12.5 mg/kg/injection, schedule: Q04DX003 (ip), vehicle: Klucel (hydroxypropylcellulose) (HPC) 98 % of control | dose: 25.0 mg/kg/injection, schedule: Q01DX009 (ip), vehicle: Klucel (hydroxypropylcellulose) (HPC) 90 % of control | dose: 25.0 mg/kg/injection, schedule: Q04DX003 (ip), vehicle: Klucel (hydroxypropylcellulose) (HPC) 101 % of control | dose: 50.0 mg/kg/injection, schedule: Q04DX003 (ip), vehicle: Klucel (hydroxypropylcellulose) (HPC) 103 % of control

O=C1C(c2ccccc2)=Nc2ccccc21
inactive: dose: 100.0 mg/kg/injection, schedule: Q04DX002 (ip), vehicle: saline with Tween-80 88 % of control | dose: 200.0 mg/kg/injection, schedule: Q04DX002 (ip), vehicle: saline with Tween-80 88 % of control | dose: 400.0 mg/kg/injection, schedule: Q04DX002 (ip), vehicle: saline with Tween-80 90 % of control

CCOC(=O)c1ccc(NCc2cnc(N)c(C#N)n2)cc1
inactive: [7] 91 % of control | [8] 95 % of control | [9] 95 % of control

CN(C)C(=O)Nc1cccc(OC(=O)NCCCl)c1
inactive: [7] 96 % of control | [8] 94 % of control | [9] 94 % of control

CCc1ccccc1NC(=O)Nc1ccccc1C
inactive: [5] 87 % of control | dose: 100.0 mg/kg/injection, schedule: Q04DX003 (ip), vehicle: Klucel (hydroxypropylcellulose) (HPC) 88 % of control | [3] 93 % of control | dose: 200.0 mg/kg/injection, schedule: Q04DX003 (ip), vehicle: Klucel (hydroxypropylcellulose) (HPC) 89 % of control | [6] 87 % of control | dose: 400.0 mg/kg/injection, schedule: Q04DX003 (ip), vehicle: Klucel (hydroxypropylcellulose) (HPC) 93 % of control

CCCCCCCCCCCCn1cnc2c(N)ncnc21
inactive: dose: 12.5 mg/kg/injection, schedule: Q01DX005 (ip), vehicle: other 101 % of control | dose: 25.0 mg/kg/injection, schedule: Q01DX005 (ip), vehicle: other 96 % of control | dose: 50.0 mg/kg/injection, schedule: Q01DX005 (ip), vehicle: other 95 % of control | dose: 100.0 mg/kg/injection, schedule: Q01DX005 (ip), vehicle: other 96 % of control | dose: 200.0 mg/kg/injection, schedule: Q01DX005 (ip), vehicle: other 93 % of control

O=C(Nc1cccc(S(=O)(=O)F)c1)/C(=C/c1ccc([N+](=O)[O-])cc1)c1ccccc1
inactive: [1] 89 % of control | [2] 99 % of control | [4] 99 % of control

O=c1[nH]c(=O)n2ncnc2[nH]1
inactive: dose: 100.0 mg/kg/injection, schedule: Q04DX003 (ip), vehicle: saline 100 % of control | dose: 200.0 mg/kg/injection, schedule: Q04DX003 (ip), vehicle: saline 100 % of control | dose: 400.0 mg/kg/injection, schedule: Q04DX003 (ip), vehicle: saline 96 % of control

Cc1ccc(C(=O)NO)cc1
inactive: dose: 100.0 mg/kg/injection, schedule: Q04DX003 (ip), vehicle: carboxymethylcellulose (CMC) 98 % of control | dose: 200.0 mg/kg/injection, schedule: Q04DX003 (ip), vehicle: carboxymethylcellulose (CMC) 90 % of control | dose: 400.0 mg/kg/injection, schedule: Q04DX003 (ip), vehicle: carboxymethylcellulose (CMC) 98 % of control

CS/C(N)=N\C(=O)N(C)C
inactive: [7] 97 % of control | [8] 98 % of control | [9] 101 % of control

CCOC1(CC)CN(Cc2ccccc2)CCO1 (centres undefined)
inactive: [5] 103 % of control | [3] 93 % of control | [6] 98 % of control

NC(N)=Nc1ccc(/C=C2\C=Cc3ccccc32)cc1
inactive: dose: 200.0 mg/kg/injection, schedule: Q01DX001 (ip), vehicle: carboxymethylcellulose (CMC) 101 % of control
